Values joined by “and” are separate entries in the source; they are usually repeats but may differ in a detail not shown here. Equal entries are not always repeated. Where two headings read alike, the source gives them in different places.
Legend:
Assay type in all cases: biochemical
HIV-1 RT mutant V75T = target: T1, HIV-1 RT mutant V75T (Human immunodeficiency virus type 1 group M subtype B, UniProt P04585, V662T); conditions: d4T-TP assay
T1 construct: The final RT products, in a heterodimeric form (p66/p51); made in house

[1] = target: T2, HIV-1 RT mutant 41/67/70/215 (Human immunodeficiency virus type 1 group M subtype B, UniProt P04585, D654N/K657R/M628L/T802Y); conditions: 41/67/70/215 RT
T2 construct: The final RT products, in a heterodimeric form (p66/p51); made in house; host or cells: E. coli XL1-Blue (vector pKK233-2)

HIV-1 RT mutant 69S-SG = target: T3, HIV-1 RT mutant 69S-SG (Human immunodeficiency virus type 1 group M subtype B, UniProt P04585, INS655SS/T656G/T656S); conditions: 69S-SG RT
T3 construct: The final RT products, in a heterodimeric form (p66/p51); made in house; host or cells: E. coli XL1-Blue (vector pKK233-2)

[2] = target: T4, HIV-1 RT mutant 41/69S-SS/215 (Human immunodeficiency virus type 1 group M subtype B, UniProt P04585, INS655SS/M628L/T656S/T802Y); conditions: 41/69S-SS/215 RT, AZT-TP assay, read-out: Km (BrdUTP)
T4 construct: The final RT products, in a heterodimeric form (p66/p51); made in house; host or cells: E. coli XL1-Blue (vector pKK233-2)

HIV-1 RT mutant 69S-AG = target: T5, HIV-1 RT mutant 69S-AG (Human immunodeficiency virus type 1 group M subtype B, UniProt P04585, INS655SA/T656G/T656S); conditions: 69S-AG RT
T5 construct: The final RT products, in a heterodimeric form (p66/p51); made in house; host or cells: E. coli XL1-Blue (vector pKK233-2)

HIV-1 RT mutant 69S-SS = target: T6, HIV-1 RT mutant 69S-SS (Human immunodeficiency virus type 1 group M subtype B, UniProt P04585, INS655SS/T656S); conditions: 69S-SS RT, AZT-TP assay, read-out: Km (BrdUTP)
T6 construct: The final RT products, in a heterodimeric form (p66/p51); made in house; host or cells: E. coli XL1-Blue (vector pKK233-2)

[3] = target: T7, HIV-1 RT mutant 41/184/215 (Human immunodeficiency virus type 1 group M subtype B, UniProt P04585, M628L/M771V/T802Y); conditions: 41/184/215 RT, AZT-TP assay, read-out: Km (BrdUTP)
T7 construct: The final RT products, in a heterodimeric form (p66/p51); made in house; host or cells: E. coli XL1-Blue (vector pKK233-2)

HIV-1 RT mutant 41/215 = HIV-1 RT mutant 41/215 (Human immunodeficiency virus type 1 group M subtype B, UniProt P04585, M628L/T802Y); experiment: RT inhibition assay (Lenti RT, polyrA/oligo(dT), BrdUTP); conditions: 41/215 RT, AZT-TP assay
[4] = target: T8, HIV-1 RT mutant 41/67/70/184/210/211/214/215 (Human immunodeficiency virus type 1 group M subtype B, UniProt P04585, D654N/K657R/L797W/L801F/M628L/M771V/R798K/T802Y); conditions: 41/67/70/184/210/211/214/215 RT
T8 construct: The final RT products, in a heterodimeric form (p66/p51); made in house; host or cells: E. coli XL1-Blue (vector pKK233-2)

[5] = target: T9, HIV-1 RT mutant 41/67/70/184/215 (Human immunodeficiency virus type 1 group M subtype B, UniProt P04585, D654N/K657R/M628L/M771V/T802Y); conditions: 41/67/70/184/215 RT
T9 construct: The final RT products, in a heterodimeric form (p66/p51); made in house; host or cells: E. coli XL1-Blue (vector pKK233-2)

HIV-1 RT mutant Q151M = target: T10, HIV-1 RT mutant Q151M (Human immunodeficiency virus type 1 group M subtype B, UniProt P04585, Q738M); conditions: d4T-TP assay
T10 construct: The final RT products, in a heterodimeric form (p66/p51); made in house

[6] = target: T11, HIV-1 RT wild type (HXB2) (Human immunodeficiency virus type 1 group M subtype B, UniProt P04585)
T11 construct: The final RT products, in a heterodimeric form (p66/p51); made in house; host or cells: E. coli XL1-Blue (vector pKK233-2)

[7] = AZT-TP assay, ATP 3.2 mM, read-out: Km (BrdUTP)
[8] = d4T-TP assay, ATP 3.2 mM, read-out: Km
[9] = d4T-TP assay, without ATP, read-out: Km
[10] = AZT-TP assay, without ATP, read-out: Km (BrdUTP)

## bromo-deoxyuridine-triphosphate [BrdUTP]
HIV-1 RT mutant V75T; ATP 3.2 mM
  Km: 0.165 µM
HIV-1 RT mutant V75T; without ATP
  Km: 0.079 µM
[1]; AZT-TP assay, ATP 3.2 mM + PPi 150 μM, read-out: Km (BrdUTP)
  Km: 0.202 µM
[1]; [7]
  Km: 0.074 µM
[1]; AZT-TP assay, ATP 6.0 mM, read-out: Km (BrdUTP)
  Km: 0.225 µM
[1]; AZT-TP assay, ATP […], read-out: Km (BrdUTP)
  Km: 0.064 µM
[1]; AZT-TP assay, GTP 0.5 mM, read-out: Km (BrdUTP)
  Km: 0.117 µM
[1]; AZT-TP assay, PPi 150 μM, read-out: Km (BrdUTP)
  Km: 0.09 µM
[1]; AZT-TP assay, no extra additions (without ATP), read-out: Km (BrdUTP)
  Km: 0.01 µM
[1]; AZT-TP assay, nontreated pyrophosphatase ATP 3.2 mM (control), single experiment, read-out: Km (BrdUTP)
  Km: 0.044 µM
[1]; AZT-TP assay, pyrophosphatase treated ATP 3.2 mM, single experiment, read-out: Km (BrdUTP)
  Km: 0.037 µM
[1]; [8]
  Km: 0.126 µM
[1]; [9]
  Km: 0.08 µM
HIV-1 RT mutant 69S-SG; [7]
  Km: 0.36 µM
HIV-1 RT mutant 69S-SG; [10]
  Km: 0.1 µM
HIV-1 RT mutant 69S-SG; [8]
  Km: 0.228 µM
HIV-1 RT mutant 69S-SG; [9]
  Km: 0.239 µM
[2]; ATP 3.2 mM
  Km: 0.21 µM
[2]; without ATP
  Km: 0.045 µM
HIV-1 RT mutant 69S-AG; [7]
  Km: 0.28 µM
HIV-1 RT mutant 69S-AG; [10]
  Km: 0.1 µM
HIV-1 RT mutant 69S-AG; [8]
  Km: 0.126 µM
HIV-1 RT mutant 69S-AG; [9]
  Km: 0.117 µM
HIV-1 RT mutant 69S-SS; ATP 3.2 mM
  Km: 0.22 µM
HIV-1 RT mutant 69S-SS; without ATP
  Km: 0.066 µM
[3]; ATP 3.2 mM
  Km: 0.14 µM
[3]; without ATP
  Km: 0.049 µM
HIV-1 RT mutant 41/215; ATP 3.2 mM
  Km: 0.36 µM
HIV-1 RT mutant 41/215; without ATP
  Km: 0.11 µM
[4]; [7]
  Km: 0.58 µM
[4]; [10]
  Km: 0.12 µM
[4]; [8]
  Km: 0.249 µM
[4]; [9]
  Km: 0.216 µM
[5]; [7]
  Km: 0.38 µM
[5]; [10]
  Km: 0.06 µM
[5]; [8]
  Km: 0.152 µM
[5]; [9]
  Km: 0.075 µM
HIV-1 RT mutant Q151M; ATP 3.2 mM
  Km: 0.174 µM
HIV-1 RT mutant Q151M; without ATP
  Km: 0.117 µM
[6]; read-out: Km (BrdUTP)
  Km: 0.31 µM and 0.17 µM
[6]; wild type HXB2 RT, AZT-TP assay, ATP 3.2 mM + PPi 150 μM, read-out: Km (BrdUTP)
  Km: 0.517 µM
[6]; wild type HXB2 RT, AZT-TP assay, ATP 6.0 mM, read-out: Km (BrdUTP)
  Km: 0.81 µM
[6]; wild type HXB2 RT, AZT-TP assay, ATP […], read-out: Km (BrdUTP)
  Km: 0.24 µM
[6]; wild type HXB2 RT, AZT-TP assay, GTP 0.5 mM, read-out: Km (BrdUTP)
  Km: 0.324 µM
[6]; wild type HXB2 RT, AZT-TP assay, PPi 150 μM, read-out: Km (BrdUTP)
  Km: 0.3 µM
[6]; wild type HXB2 RT, d4T-TP assay, ATP 3.2 mM, read-out: Km
  Km: 0.162 µM
[6]; wild type HXB2 RT, d4T-TP assay, without ATP, read-out: Km
  Km: 0.136 µM
